The source of these data is patent US20090123940A1, “MOLECULES INVOLVED IN SYNAPTOGENESIS AND USES THEREFOR” (THE JOHNS HOPKINS UNIVERSITY, priority 2007, published 2009).

One assay has as its target T1, Narp (Rattus norvegicus, UniProt P97738).
T1 construct: GST-tagged GluR1-12mer (GST-G1-12mer) and myc-tagged full length Narp; made in house; host or cells: 293T cells (myc-Narp, cleared lysate); E. coli (GST fusions, pGEX-4T-2)
T1 sequence (P97738 15-432): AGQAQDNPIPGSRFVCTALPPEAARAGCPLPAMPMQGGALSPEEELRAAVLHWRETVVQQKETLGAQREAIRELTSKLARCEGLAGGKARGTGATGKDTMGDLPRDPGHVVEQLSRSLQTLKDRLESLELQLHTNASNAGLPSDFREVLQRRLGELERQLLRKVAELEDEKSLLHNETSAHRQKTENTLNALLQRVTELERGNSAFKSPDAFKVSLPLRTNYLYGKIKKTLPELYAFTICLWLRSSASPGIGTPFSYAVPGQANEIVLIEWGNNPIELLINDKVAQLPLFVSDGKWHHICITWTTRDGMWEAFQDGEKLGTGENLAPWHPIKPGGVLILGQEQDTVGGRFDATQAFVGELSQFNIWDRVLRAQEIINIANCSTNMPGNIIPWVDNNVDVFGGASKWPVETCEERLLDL
Nature of the assay: In vitro binding (GST pull down) with myc-Narp. On the procedure: In Vitro Binding. Polynucleotides encoding NAR fragments were subcloned into pGEX-4T-2 vector (Amersham) in the EcoRI and SalI sites. The constructs were confirmed by restriction enzyme digestion, DNA sequencing and fusion protein expression. GST-fusion proteins were purified by bacterial inoculation of one clone containing GST-fusion protein plasmid into 5 mL of LB liquid medium and cultured at 37 C overnight. Cultured bacteria was transferred into 400 mL of LB liquid medium and cultured at 30 C for 3 hours. Protein expression was induced with 5 mM IPTG and the bacteria were cultured at 30 C for another 2 hours. A bacterial pellet was collected and resuspended in 10 mL of lysis buffer (pH 7.4 PBS containing 10 mM sodium pyrophosphate, 1 mM sodium orthovanadate, 1% triton and 0.1% PMSF), sonicated for 10 seconds, 3 times at 4 C. Debris was pelleted with centrifugation at 12,000 rpm at 4 C for 10 minutes. The supernatant was incubated with Glutathione Sepharose 4B beads (Pharmacia) with agitation at 4 C for 2 hours. Beads were washed with lysis buffer+1% triton+0.1% PMSF twice; lysis buffer+PMSF twice; PBS+0.5M NaCl once; and PBS twice. The fusion protein bound beads were then used in the in vitro binding assay. Purified Narp protein preparation was accomplished by splitting 293T cells is into 100 mm culture dishes at the density of 5×10^5 cells/mL. […]

In another assay the test system is GluR1. Put plainly: Immunocytochemical staining of surface and internalized GluR1 in cultured hippocampal neurons. To be noted: 50 μM DFB added 5 min before DHPG stimulation. In kind it is cell-based. On the procedure: Immunocytochemical staining. Immunocytochemical staining of heterologous cells was performed as described (Xu et al., supra). For PMA-stimulation experiments, PMA (Sigma Cat #: P8139) at (150 nM) was added 90 minutes prior to live staining. Images were viewed and captured using Nikon E800 epifluorescence microscope fitted with a Princeton Instruments CCD camera. For live staining, neurons cultured on coverslips were incubated at 10° C. with the appropriate primary antibodies at the indicated dilutions in conditioned culture medium for 20 min. They were then washed with PBS and fixed with 4% paraformaldehyde/4% sucrose in PBS for 20 min at room temperature. Cells were permeablized with 0.2% Triton X-100 in PBS for 5 min and then blocked in 10% normal goat serum in PBS for 1 hr at room temperature. If intracellular proteins were of interest, coverslips were then incubated with antibody diluted in 10% normal goat serum for 1 hr at room temperature or overnight at 4° C. Coverslips were washed with PBS and incubated with secondary antibody conjugated to Alexa488 and Alexa555 (1:500 in 10% normal goat serum, Molecular Probes Eugene, Oreg.). Coverslips were mounted using the Prolong Antifade Kit (Molecular Probes, Eugene, Oreg.). For immunocytochemistry studies, mGluR1/5 were activated using the selective agonist (S)-DHPG (Tocris Cat.# 0805) with mGluR5 allosteric potentiator DFB (Tocris Cat.#1625). Neurons were incubated with DFB (50 μM) for 5 min and then DHPG (50 μM) for an additional 5 min in neuronal incubation medium and then transferred into the original incubation medium. […] Cells were incubated at 37° C. to allow endocytosis. At indicated time points, cells were incubated with N-terminal GluR1 mouse antibody (JH 4093; 0.2 μg/100 μl; kind gift from T. […] (to block endocytosis during staining). Cells were then processed for immunofluorescent staining as described above. An acid strip protocol was employed to measure endocytosed antibody labeled GluR1 (Snyder et al., 2001). Neurons were washed with progressively cooler NIM to slow basal endocytosis. Cells were then live labeled at 10° C. with GluR1 N-terminal antibody (0.2 μg/100 μL JH4094) antibody in NIM for 20 min. After washing unbound excess antibody, cells were incubated sequentially with DFB, DHPG, and original incubation medium at 37° C., as described above. After appropriate incubation times, cells were washed with 4° C. TBS. […] Neurons were then washed with 4° C. TBS followed by processing for immunofluorescent staining as described above. All neurons were viewed and captured using UltraVIEW spinning disk confocal microscope (PerkinElmer Life Sciences, Wellesley, Mass., USA) with a Nikon Eclipse TE 200 microscope and a 63× objective (Nikon, Melville, N.Y.). Images were acquired and saved as Tiff files with a dynamic range of 65536 grey levels (16-bit binary). Image analysis was performed using Metamorph imaging software (Universal Imaging, Downingtown, Pa.). For quantification of the punctate structures (e.g. GluR1), images were thresholded by grey value to differentiate single puncta. Segments of dendrites were selected and number of puncta was calculated per […] of length dendrite. Figures show ratios of calculated mean densities (number of puncta per unit length) from treated/control. Error bars were calculated using SEM and Gaussian error propagation. n=number of measured dendrites. Significance was determined by paired Student's T-test.

The test system of assay [1] is Purkinje cells cultured from embryonic mouse cerebellum. Put plainly: LTD of glutamate-evoked inward current in cultured Purkinje cells (glutamate test pulses paired with depolarizing steps). In kind it is cell-based. The conditions noted are these: t=40 min; TAPI-2 10 μM, GM6001 1 μM, GM6001 control compound 1 μM; n=7. On the procedure: (§1) Recording and Ca^2+ imaging in cerebellar cultures. Cultures of embryonic mouse cerebellum were prepared as previously described and recordings were performed according to our previously published method (Leitges et al., Neuron 44:585-94, 2004). […]. Test pulses were delivered using negative current pulses (300-700 nA, 30-80 msec duration). LTD-inducing pairing stimuli consisted of six, 3-s-long depolarizations to 0 mV, each delivered together with a test pulse of glutamate.
(§2) Membrane currents were recorded with an Axopatch 200A amplifier, and digitized at 10 kHz for exogenous glutamate responses and 20 kHz for mEPSCs. Signals were lowpass filtered at 5 kHz (1 kHz for mEPSCs) and acquired using Axograph X software (Axograph Scientific, Sydney, Australia). Recordings in which Rinput or Rseries varied by more than 10% were excluded from the analysis. For analysis of mEPSCs, Axograph X mini analysis software was used. This detected events based on closeness of fit of the mEPSC to a sliding template. Events smaller than − ? 4 pA were discarded. A separate template was created for each recording by averaging 30 of its most unambiguous mEPSCs as selected by eye.
Other studies have shown that LTD in Purkinje cells cultured from embryonic mouse cerebellum requires activation of mGluR1, and is expressed postsynaptically as a reduction in surface AMPA receptors (Chung et al., Science 300:1751-5, 2003; Leitges et al., Neuron 44:585-94, 2004; Linden, PNAS 98:14066-71, 2001; Matsuda et al., EMBO J. 19:2765-74, 2000; Steinberg et al., Neuron 49:845-60, 2006; Wang and Linden, Neuron 25:635-47, 2000). Here, LTD was examined using a purely postsynaptic model in which iontophoretic test pulses of glutamate are applied to voltage-clamped Purkinje cells in culture. Following a baseline recording period, LTD was induced by pairing six 3 sec long depolarizing steps to 0 mV with six glutamate test pulses. When test pulses were resumed after pairing, LTD of the glutamate-evoked inward current was evident (52±9.0% of baseline at t=40 min, n=7 cells, FIG. 6A). […]

In assay [2] the test system is cultured cerebellar Purkinje cells. Nature of the assay: Basal electrophysiological properties and Ca2+ imaging in cultured cerebellar Purkinje cells. In kind it is cell-based, mouse. The conditions noted are these: TAPI-2 10 μM; GM6001 1 μM; GM6001 control 1 μM; mean ± SEM. The procedure:
as §1, §2
Bis-Fura-2 ratio imaging of intracellular free Ca^2+ in the dendritic shafts of cultured Purkinje cells was accomplished by measuring the background corrected fluorescence ratio at 340 and 380 nm excitation using a cooled CCD camera system. In these experiments, EGTA was removed from the internal saline and replaced with 100 μM bis-Fura-2.

The test system of assay [3] is NPR cleavage at Site A (TACE). Put plainly: NPR cleavage assay in transfected HEK293T cells. In kind it is cell-based, rat. The conditions noted are these: TAPI-2 50 μM; GM6001 25 μM. On the procedure:
Cleavage Assay HEK293T cells were plated in OptiMEM (Invitrogen, Carlsbad, Calif.) containing 5% FBS onto 6-well dishes at a density of 4×10^5 cells/mL (2 mL/well) 1 day before transfection. Cells were transfected with NPR in pRK5 using LipofectAMINE 2000 (Invitrogen, Carlsbad Calif.). After 24 hr the medium was replaced with serum-free OptiMEM. […] Samples from each well were obtained at specific time points, immediately placed on ice, centrifuged at 15,000 g to remove cell debris, and then treated with 2% β-mercaptoethanol containing loading buffer. At the end of the time course, the cells were lysed with RIPA buffer, centrifuged to remove cell debris, and treated with 2% β-mercaptoethanol in loading buffer. Samples (20 μL of medium or lysate diluted to 1/5) were run on SDS-PAGE gels and analyzed by Western blotting.

Ends that are not written are not given here.

As to “G1-12mer peptide: synthetic 12 amino acid GluR1 NAR1 sequence, Narp binding motif LRRQRIDISRRG (SEQ ID NO:24) (listed as Homo sapiens)”, the “in vitro binding between GST-G1-NarI and Narp” value with Narp (synthetic peptide added) is given as “blocked”.
Consider `Fc1cccc(C=NN=Cc2cccc(F)c2)c1` [DFB, 3,3′-difluorobenzaldazine], for which, in the assay on GluR1, the “consistency of the DHPG-evoked response” value was “increased the consistency of the DHPG-evoked response”.
On to “GST-G1-12mer: bacteria GST-tagged GluR1-12mer (LRRQRIDISRRG; also: GST tag, end not given here)”, for which, in the assay with Narp (GST fusion proteins), the “pull down of myc-tagged full length Narp” value is given as “pulls down Narp”.
`CNC(=O)C(Cc1c[nH]c2ccccc12)NC(=O)C(CC(C)C)NC(=O)OC(C)(C)C` (stereo not drawn) [GM6001 control compound]: the “glutamate-evoked inward current after LTD induction” value in assay [1] is given as 48±9.8 % of baseline. Further, in assay [2], the “DHPG-evoked (dendritic Ca2+ transient)” value was found to be 277 ± 42 nM, the “Depol-evoked (dendritic Ca2+ transient)” value is recorded as 526 ± 55 nM, the “Resting Ca2+” value was 100 ± 25 nM and the “mEPSC 10-90% rise” value amounted to 1.6 ± 0.3 msec. In addition, in assay [2], the “mEPSC 50% decay” value is 7.6 ± 0.7 ms and the mEPSC amp turned out to be 26 ± 6 pA.
For the molecule `CNC(=O)[C@H](Cc1c[nH]c2ccccc12)NC(=O)[C@@H](CC(=O)NO)CC(C)C` [GM6001], in assay [1], the “glutamate-evoked inward current after LTD induction” value was 106±8.4 % of baseline. Moreover, in assay [2], the “DHPG-evoked (dendritic Ca2+ transient)” value came to 268 ± 39 nM, the “Depol-evoked (dendritic Ca2+ transient)” value is on record as 557 ± 65 nM, the “Resting Ca2+” value came to 123 ± 27 nM and the “mEPSC 10-90% rise” value is 2.0 ± 0.3 msec. Further, in assay [2], the “mEPSC 50% decay” value is 8.0 ± 0.6 ms and the mEPSC amp is on record as 25 ± 6 pA. Also, in assay [3], the “PMA-stimulated cleavage at Site A / secretion of LFC-NPR into the medium” value is on record as “inhibited”.
